Laboratory results: patent US20250295679A1, “Compositions and Dosage Forms for Treatment of HPV Infection and HPV-Induced Neoplasia” (priority 2022, published 2025)
Where two headings read alike, the source gives them in different places.

Experiments:
[1] = system: HEK293 cells; assay: In vitro cytotoxicity, XTT, five days
Method: (§1) Three compounds (Compound I, Compound II and Compound III) were solubilized at 40 mM in DMSO and stored at −20° C. The test compounds were evaluated using a high test concentration of 50 μM. Serial half-logarithmic dilutions were performed for the in vitro cytotoxicity assays.
(§2) Cells listed in Table 70 were enumerated by Trypan Blue Dye exclusion method and seeded in the interior wells of a 96 well flat bottom microtiter plate at 100 μL/well. Proliferating cells were incubated overnight at 37° C./5% CO2 to allow the cells to adhere to the plates at approximately 70% confluency. Tissue culture medium was removed and replaced with 100 μL/well of fresh medium. One-hundred microliters (100 μL) of each compound at six concentrations was transferred to the 96-well plate containing the cells in triplicate. Table 70 lists the cell line, type of cell, source of cell stock, base tissue culture medium supplemented with 10% fetal bovine serum, 2 mM L-glutamine, 100 U/mL penicillin and 100 μg/mL streptomycin, and microtiter plate seeding density.
(§3) Following incubation at 37° C. in a 5% CO2 incubator for five days, the test plates were stained with the tetrazolium dye XTT (2,3-bis(2-methoxy-4-nitro-5-sulfopheny1)-5-[(phenylamino)carbonyl]-2H-tetrazolium hydroxide). XTT-tetrazolium was metabolized by the mitochondrial enzymes of metabolically active cells to a soluble formazan product. XTT solution was prepared daily as a stock of 1 mg/ml in RPM11640. Phenazine methosulfate (PMS) solution was prepared at 0.15 mg/ml in PBS and stored in the dark at −20° C. XTT/PMS stock was prepared immediately before use by adding 40 μL of PMS per ml of XTT solution. Fifty microliters of XTT/PMS were added to each well of the plate and the plate was reincubated for 4 hours at 37° C. Plates were sealed with adhesive plate sealers and shaken gently or inverted several times to mix the soluble formazan product and the plate was read spectrophotometrically at 450/650 nm with a Molecular Devices Vmax plate reader.
(§4) Microsoft Excel 2010 was used to analyze and graph the raw data. […] Raw data for cytotoxicity with a graphic representation of the data are provided in a printout summarizing the compound effect on cell viability.
(§5) Compounds I, II, and III were evaluated for cytotoxicity to proliferating Hs27, HeLa, C33A and HEK293 cells by measuring cell viability using XTI tetrazolium dye following five days in culture (Table 71).

[2] = Behavior under compression, grinding and granulation simulation (XRPD); format: physicochemical
Method: About 10 mg of Compound I monofumarate Pattern 1 (Example 7) was compressed for 5 minutes at 10 MPa with a hydraulic press. XRPD characterization was performed to investigate the polymorphic behavior under compression.
About 10 mg of Compound I monofumarate Pattern 1 (Example 7) was ground manually with a mortar and pestle for 5 min. Form transformation and degree of crystallinity was evaluated by XRPD.
Water or ethanol was added drop wise to about 10 mg of Compound I monofumarate Pattern 1 (Example 7) until solids were wetted sufficiently. The samples were ground manually with a mortar and pestle for 3 minutes. Samples are dried under ambient condition for 10 min.
Form transformation and degree of crystallinity were evaluated by XRPD.

[3] = Solubility in buffers, water and simulated vaginal fluid at 37° C.; details: 37° C.
Method: About 4 mg of Compound I Pattern 1 was added into 2 mL of buffer solution.
(§6) Solubility was tested in five media, pH 3.0 citrate buffer, pH 4.5 acetate buffer, pH 6.8 phosphate buffer, water, simulated vaginal fluid (pH 4.2) at 37° C. for 0.5 h and 2 h.
The salt amount used is equivalent to 10 mg anhydrous free base. […] The obtained clear solutions were analyzed by pH meter for pH, and solubility was determined by observation.
as §6

[4] = Tablet stability study (storage, purity by HPLC); format: physicochemical; details: for Degradation of tablets: within one month at 40° C. and 75% RH
Method: Tablets were prepared using the excipients and excipient ratios shown in the first column of the following tables. The tablets were then stored under the conditions indicated and periodically sampled and tested for purity by HPLC.

[5] = Hygroscopicity by DVS at 25° C.; format: physicochemical; details: for XRPD after DVS test: after humidity cycle 40-0-95-0-40% RH, 25° C.
Method: Hygroscopicity was investigated by DVS at 25° C., using the following method: • Method: 40-0-95-0-40% RH, dm/dt=0.002

[6] = Bulk (accelerated) stability, one week, HPLC and XRPD; details: initial chemical purity before storage
Method: Bulk stability: Accelerated stability experiments were conducted at 25° C./92% RH and 40° C./75% RH in an open container, 60° C. in a tight container for one week.
Samples were characterized by XRPD and HPLC and inspected for color change.
Accelerated stability experiments were conducted at 25° C./92% RH in an open container, at 40° C./75% RH in an open container, and at 60° C. in a tight container for one week.

[7] = system: C33A cells; assay: In vitro cytotoxicity, XTT, five days; details: read-out: C33A CC50, proliferating C33A cells
Method: as §1, §2, §3, §4, §5

[8] = system: Hs27 cells
Method: as §1, §2, §3, §4, §5

[9] = system: HeLa cells
Method: as §1, §2, §3, §4, §5

[10] = ground manually with mortar and pestle for 5 min
[11] = solution in pH 3.0 100 mM citrate buffer
[12] = solution in pH 4.5 50 mM acetate buffer
[13] = solution in pH 6.8 50 mM phosphate buffer
[14] = solution in simulated vaginal fluid (pH adjusted with 0.2N NaOH)

CCOC(=O)C(C)NP(=O)(COCCn1cnc2c(OC)nc(N)nc21)OCc1ccccc1 (mixture of isomers) [AB12280]
CC50 ([1]; read-out: HEK293 CC50, proliferating HEK293 cells, XTT, five days): < 0.16 µM

CCOC(=O)[C@H](C)NP(=O)(COCCn1cnc2c(OC)nc(N)nc21)OCc1ccccc1.O=C(O)/C=C/C(=O)O (mixture of isomers) [Compound I monofumarate, (±)-(2S)-ethyl-2-((((2-(2-amino-6-methoxy-9H-purin-9-yl)-ethoxy)-methyl)-(benzyloxy)-phosphoryl)-amino)-propionate monofumarate]
Form change by XRPD under compression ([2]; compressed 5 minutes at 10 MPa): no form change was observed | Crystallinity by XRPD after grinding [2, 10]: crystallinity slightly decreased | Form change by XRPD after grinding [2, 10]: no form change was observed | Form change by XRPD after granulation simulation ([2]; wetted with water or ethanol, ground 3 minutes, dried): neither in ethanol, nor in water form change was observed | pH at 2 hrs [3, 11]: (3.05) | pH at 2 hrs [3, 12]: (4.36) | pH at 2 hrs [3, 13]: (6.49) | pH at 2 hrs [3, 14]: (5.39) | pH at 2 hrs ([3]; solution in water): (3.11) | Degradation of tablets compared with tablets produced from Compound I ([4]; range of different formulations, purity by HPLC): degraded less | Degradation of tablets [4]: far less degradation | Desorption (%) Cycle 1 ([5]; 0% RH, DVS 25° C.): 0.49% | Desorption (%) Cycle 2 ([5]; 0% RH, DVS 25° C.): 0.09% | Sorption (%) Cycle 1 ([5]; 0% RH, DVS 25° C.): 0.49% | Sorption (%) Cycle 2 ([5]; 0% RH, DVS 25° C.): 0.09% | Desorption (%) Cycle 1 ([5]; 10% RH, DVS 25° C.): 0.62% | Desorption (%) Cycle 2 ([5]; 10% RH, DVS 25° C.): 0.15% | Sorption (%) Cycle 1 ([5]; 10% RH, DVS 25° C.): 0.56% | Sorption (%) Cycle 2 ([5]; 10% RH, DVS 25° C.): 0.18% | Desorption (%) Cycle 1 ([5]; 20% RH, DVS 25° C.): 0.71% | Desorption (%) Cycle 2 ([5]; 20% RH, DVS 25° C.): 0.35% | Sorption (%) Cycle 1 ([5]; 20% RH, DVS 25° C.): 0.66% | Sorption (%) Cycle 2 ([5]; 20% RH, DVS 25° C.): 0.27% | Desorption (%) Cycle 1 ([5]; 30% RH, DVS 25° C.): 0.81% | Desorption (%) Cycle 2 ([5]; 30% RH, DVS 25° C.): 0.47% | Sorption (%) Cycle 1 ([5]; 30% RH, DVS 25° C.): 0.76% | Sorption (%) Cycle 2 ([5]; 30% RH, DVS 25° C.): 0.37% | Desorption (%) Cycle 1 ([5]; 40% RH, DVS 25° C.): 0.93% | Desorption (%) Cycle 2 ([5]; 40% RH, DVS 25° C.): 0.56% | Sorption (%) Cycle 1 ([5]; 40% RH, DVS 25° C.): 0.86% | Sorption (%) Cycle 2 ([5]; 40% RH, DVS 25° C.): 0.47% | Desorption (%) Cycle 2 ([5]; 50% RH, DVS 25° C.): 0.67% | Sorption (%) Cycle 1 ([5]; 50% RH, DVS 25° C.): 0.71% | Desorption (%) Cycle 2 ([5]; 60% RH, DVS 25° C.): 0.85% | Sorption (%) Cycle 1 ([5]; 60% RH, DVS 25° C.): 0.85% | Desorption (%) Cycle 2 ([5]; 70% RH, DVS 25° C.): 1.04% | Sorption (%) Cycle 1 ([5]; 70% RH, DVS 25° C.): 1.02% | Desorption (%) Cycle 2 ([5]; 80% RH, DVS 25° C.): 1.30% | Sorption (%) Cycle 1 ([5]; 80% RH, DVS 25° C.): 1.27% | Desorption (%) Cycle 2 ([5]; 90% RH, DVS 25° C.): 1.84% | Sorption (%) Cycle 1 ([5]; 90% RH, DVS 25° C.): 1.78% | Desorption (%) Cycle 2 ([5]; 95% RH, DVS 25° C.): 2.89% | Sorption (%) Cycle 1 ([5]; 95% RH, DVS 25° C.): 2.89% | XRPD after DVS test [5]: No form change, | Water uptake ([5]; up to / in 95% RH, DVS 25° C.): about 2.9% | HPLC purity, Initial ([6]; listed as Compound I monofumarate Pattern 1, monofumarate): 98.6%

CCOC(=O)[C@H](C)N[P@](=O)(COCCn1cnc2c(OC)nc(N)nc21)OCc1ccccc1 (single isomer, unassigned; isomer 1) [AB12280 Isomer 1]
CC50 [7]: 0.2 µM | CC50 [1]: < 0.16 µM | CC50 [8]: 23.2 µM | CC50 [9]: 15.1 µM

CCOC(=O)[C@H](C)N[P@@](=O)(COCCn1cnc2c(OC)nc(N)nc21)OCc1ccccc1 (single isomer, unassigned; isomer 2) [AB12280 Isomer 2]
CC50 [7]: < 0.16 µM | CC50 [1]: < 0.16 µM | CC50 [8]: 7.62 µM | CC50 [9]: 16.9 µM

CCOC(=O)[C@H](C)NP(=O)(COCCn1cnc2c(OC)nc(N)nc21)OCc1ccccc1 (stereo partly drawn) [Compound I, ethyl(((2-(2-amino-6-methoxy-9H-purin-9-yl)ethoxy)methyl)(benzyloxy)-phosphoryl)-L-alaninate]
pH at 2 hrs [3, 11]: (2.98) | pH at 2 hrs [3, 12]: (4.50) | pH at 2 hrs [3, 13]: (6.81) | pH at 2 hrs [3, 14]: (5.53) | pH at 2 hrs ([3]; solution in water): (7.55) | Degradation of tablets [4]: substantially degrade | Desorption (%) Cycle 1 ([5]; 0% RH, DVS 25° C.): 0.00% | Desorption (%) Cycle 2 ([5]; 0% RH, DVS 25° C.): 0.19% | Sorption (%) Cycle 1 ([5]; 0% RH, DVS 25° C.): 0.00% | Sorption (%) Cycle 2 ([5]; 0% RH, DVS 25° C.): 0.19% | Desorption (%) Cycle 1 ([5]; 10% RH, DVS 25° C.): 0.11% | Desorption (%) Cycle 2 ([5]; 10% RH, DVS 25° C.): 0.37% | Sorption (%) Cycle 1 ([5]; 10% RH, DVS 25° C.): 0.08% | Sorption (%) Cycle 2 ([5]; 10% RH, DVS 25° C.): 0.22% | Desorption (%) Cycle 1 ([5]; 20% RH, DVS 25° C.): 0.23% | Desorption (%) Cycle 2 ([5]; 20% RH, DVS 25° C.): 0.57% | Sorption (%) Cycle 1 ([5]; 20% RH, DVS 25° C.): 0.17% | Sorption (%) Cycle 2 ([5]; 20% RH, DVS 25° C.): 0.30% | Desorption (%) Cycle 1 ([5]; 30% RH, DVS 25° C.): 0.47% | Desorption (%) Cycle 2 ([5]; 30% RH, DVS 25° C.): 0.83% | Sorption (%) Cycle 1 ([5]; 30% RH, DVS 25° C.): 0.28% | Sorption (%) Cycle 2 ([5]; 30% RH, DVS 25° C.): 0.44% | Desorption (%) Cycle 1 ([5]; 40% RH, DVS 25° C.): 0.60% | Desorption (%) Cycle 2 ([5]; 40% RH, DVS 25° C.): 1.09% | Sorption (%) Cycle 1 ([5]; 40% RH, DVS 25° C.): 0.41% | Sorption (%) Cycle 2 ([5]; 40% RH, DVS 25° C.): 0.62% | Desorption (%) Cycle 2 ([5]; 50% RH, DVS 25° C.): 1.48% | Sorption (%) Cycle 1 ([5]; 50% RH, DVS 25° C.): 0.61% | Desorption (%) Cycle 2 ([5]; 60% RH, DVS 25° C.): 1.96% | Sorption (%) Cycle 1 ([5]; 60% RH, DVS 25° C.): 0.85% | Desorption (%) Cycle 2 ([5]; 70% RH, DVS 25° C.): 2.78% | Sorption (%) Cycle 1 ([5]; 70% RH, DVS 25° C.): 1.14% | Desorption (%) Cycle 2 ([5]; 80% RH, DVS 25° C.): 4.33% | Sorption (%) Cycle 1 ([5]; 80% RH, DVS 25° C.): 1.64% | Desorption (%) Cycle 2 ([5]; 90% RH, DVS 25° C.): 9.10% | Sorption (%) Cycle 1 ([5]; 90% RH, DVS 25° C.): 4.27% | Desorption (%) Cycle 2 ([5]; 95% RH, DVS 25° C.): 14.32% | Sorption (%) Cycle 1 ([5]; 95% RH, DVS 25° C.): 14.32% | XRPD after DVS test [5]: No form change, | HPLC purity, Initial ([6]; listed as Compound I free base Pattern 1): 98.7%
